The text below walks through data of US20240337647A1, “IMPROVED METHODS FOR IDENTIFICATION OF FUNCTIONAL CELL STATES” (priority 2021, published 2024).

Read-outs that look alike come from different tables or passages of the source.

The test system of data set [1] is biomolecular targets known to be associated with common negative side effects of pharmaceuticals in humans. Briefly: In vitro secondary pharmacology panels, all targets of the two panels (31 dose-response + 78 single concentration). As to conditions: percentage of targets hit among all targets tested in the two secondary pharmacology panels. Type of data set: biochemical. The procedure: The purpose of this study was to assess the toxicity risk estimation provided by the Cell Health Screen relative to information from panels of in vitro pharmacology assays that were also designed to detect toxicity risk during pharmaceutical development. This study was performed with outside collaborators who have expertise in the use of the in vitro pharmacology assays. These in vitro assay panels detect whether chemical compounds directly interact with biomolecular targets known to be associated with toxic side effects in humans (mostly enzymes, cell surface receptors, and other proteins that participate in signaling pathways) (Pottel et al., 2020). […] As such, the interpretation process is somewhat subjective. In contrast, the Cell Health Screen uses a feature extraction and ML classifier strategy described above, to reduce all cellular phenotypic changes caused by a chemical compound to a single probability value, from 0 to 1. This is a quantitative toxicity risk estimation relative to a training set of compounds used to train the ML classifier. Therefore, comparing results from the Cell Health Screen to the in vitro pharmacology panels is a matter of comparing the trend in ML classifier probability values, across all 40 excipients, with their relative degrees of promiscuity and target interaction potency observed in the in vitro pharmacology panels.
(§1) For a detailed description of our collaborators' in vitro pharmacology assay panels, please see the publication by Pottel et al. (Pottel et al., 2020). Briefly, each in vitro assay focuses on one biomolecular target known to be associated with common negative side effects of pharmaceuticals in humans. These targets are generally enzymes, cell surface receptors, or other proteins that mediate cell signal transduction. In one assay panel, chemical compound interaction is assessed for 31 biomolecular targets in a dose-response fashion, which assesses compound-target interaction strength expressed as an IC50 and an activity range (unless no interaction happens).
Here we present two summarized versions of the study results. […] For the biological endpoints, the abbreviation key is as follows: CM=cell morphology, CMI=cell membrane integrity, ROS=reactive oxygen species, GTH=glutathione, NMI1=nuclear membrane integrity 1, CC=cell cycle, NMI2=nuclear membrane integrity 2, MMP=mitochondrial membrane potential. […] This is the percentage of all biomolecular targets for which an effect was observed, for each excipient. The THR value serves as an expression of an excipient's promiscuity with regard to binding biomolecular targets known to associate with toxic side effects in humans.

The next data set has as its system HL60 cells. The experiment in a line: AsedaSciences SYSTEMETRIC Cell Health Screen (multiparametric acute cell stress assay, flow cytometry, ML classifier). As to conditions: probability (0 to 1) of assignment to the 'yes' high cell stress class; HL60, 4 hours, 5 nM-100 μM. The text has this:
The Cell Health Screen is a multiparametric acute cell stress assay, using a panel of fluorescent physiological reporting dyes, on an automated flow cytometry platform. Rather than simply producing dose-response curves for all individual biological readouts, features are generated by computing custom-defined distance functions between test and control wells. All test compounds are represented as feature vectors, after which the analysis algorithm employs a logistic regression model to classify test compounds relative to a training set. This machine learning (ML) approach integrates all measured readouts into a single predictive statistical model. […] This training set empirically covers the full range of possible phenotypes in the Cell Health Screen, from no-response to acute stress, with sufficient representation across the spectrum. Training set compounds were assigned to binary classes (“yes”=expectation of high cell stress or “positive” phenotype; “no”=no expectation of positive phenotype). This externally established ground-truth was based upon manually curated information from research literature and, where applicable, clinical trial results and commercial/regulatory histories.
For an unknown test compound, the ML classifier uses all the FC parameter features describing compound response, simultaneously, to predict the final assignment. This is achieved by calculating the probability of assigning that compound's screen phenotype to the “yes” class defined by the training set. By specifying the problem as a classification challenge, the data analysis pipeline assures that any apparent lack of coordinated change among biological readouts presents no interpretation challenge. All phenotypic data are treated simply as input features to a statistical model. In contrast, many conventional flow cytometry assays require strict mechanistic interpretation of every measured biological readout. often resulting in conflicting conclusions (e.g. if reactive oxygen species increase, but glutathione is unaffected, which should be “believed”?). The final probability score, or Cell Health Index, is a quantitative assessment of a multiparametric phenotype's similarity to a diverse set of known good and bad actors. Finally, choosing HL60 as our reporter cell line means that the screen is explicitly designed not to detect instances in which a parent compound only causes cellular toxicity via metabolites.
In a 384-well platform. HL60 cells are exposed to a 10-step, 3× dilution series of each test compound (5 nM-100 μM) for 4 hours at 37° C. with 5% CO2. Each dilution series is screened in duplicate, occupying a total of 20 wells, allowing 16 test compounds to be assayed on each plate. Each row contains one positive and one negative control well, for a total of 16 matched control pairs on each assay plate. Compound formatting, cell deposition, and dye application are performed robotically, so that final assay conditions comprise 100,000 cells in a 40 μl volume. After compound exposure, live cells are rapidly stained with a panel of fluorescent dyes that report physiological signatures of both mitochondrial dysfunction and gross cell stress. Fluorescence data are collected using automated flow cytometry with no gating. […] Well-specific flow cytometry data files, with an accompanying map of well contents, are moved to cloud infrastructure where the automated algorithm for quality control and ML classification is triggered. […]

The test system of the next data set is 31 biomolecular targets. Briefly: In vitro pharmacology panel of 31 biomolecular targets, dose-response. In kind it is biochemical. As to conditions: for IC50: read-out: Avg potency. As for the experimental part: as §1
These last two features are derived from the first panel of 31 biomolecular targets, which are assayed using a concentration series of each excipient to produce a dose-response curve.

Where [2] appears, read: average concentration of the IC50 values from dose-response results, panel of 31 targets.
Setting [3] is: first panel of 31 biomolecular targets, concentration series.

Consider `CC(C)(C)CC(C)(C)c1ccc(OCCOCC[N+](C)(C)Cc2ccccc2)cc1` [Benzethonium chloride], for which the “Overall target hit rate” value in data set [1] is 51%.

In the case of `Cc1cc(O)cc(C)c1Cl` [Chloroxylenol, 4-chloro-3,5-dimethylphenol], the “Overall target hit rate” value in data set [1] is recorded as 6%. Further, in the data set with HL60 cells, the “CHI score (Cell Health Index)” value was 0.349. In addition, the IC50 with 31 biomolecular targets (setting [2]) came out at 12 µM. In the data set on 31 biomolecular targets (setting [3]), this compound yielded an Activity range of 10 to 14 µM.

Consider `O=C([O-])c1c(Cl)c(Cl)c(Cl)c(Cl)c1-c1c2cc(Br)c(=O)c(Br)c-2oc2c(Br)c([O-])c(Br)cc12.[Na+].[Na+]` [D&C Red #28, Phloxine B], for which, in data set [1], the “Overall target hit rate” value is reported as 55%. For the same compound, the “CHI score (Cell Health Index)” value in the data set on HL60 cells was determined as 0.637. In the data set with 31 biomolecular targets (setting [3]), this compound showed an Activity range of 0.13 to 28 µM. In addition, the IC50 in the data set on 31 biomolecular targets is 10 µM.

For the compound `O=C1OC2(c3ccccc31)c1cc(I)c(O)c(I)c1Oc1c2cc(I)c(O)c1I` [FD&C Red #3, Erythrosine extra bluish], the “Overall target hit rate” value in data set [1] turned out to be 48%. In addition, the IC50 in the data set on 31 biomolecular targets (setting [2]) amounted to 5.7 µM. The same compound returned an Activity range in the data set on 31 biomolecular targets (setting [3]) of 0.09 to 25 µM.

Take `CN(C)c1ccc2nc3ccc(=[N+](C)C)cc-3sc2c1` [Methylene blue hydrate]: the “Overall target hit rate” value in data set [1] amounted to 48%. Further, the IC50 in the data set on 31 biomolecular targets (setting [2]) was found to be 6.5 µM. Also, the Activity range with 31 biomolecular targets (setting [3]) fell in the range of 0.04 to 24 µM.

With `CC(=O)[O-].[Hg+][c]1ccccc1` [Phenylmercuric acetate], the “Overall target hit rate” value in data set [1] was 58%. The “CHI score (Cell Health Index)” value in the data set on HL60 cells is reported as 0.955. Further, in the data set with 31 biomolecular targets, the Activity range lay in the range of 0.02 to 22 µM and the IC50 was 5 µM.

Consider `CCCOC(=O)c1cc(O)c(O)c(O)c1` [Propyl gallate], for which, in data set [1], the “Overall target hit rate” value was 3%. Besides, the IC50 in the data set on 31 biomolecular targets (setting [2]) was 7.2 µM. This compound also came in with an Activity range with 31 biomolecular targets (setting [3]) of 0.015 to 7.2 µM.

Consider `CCCOC(=O)c1ccc(O)cc1` [Propylparaben], for which, in data set [1], the “Overall target hit rate” value was 3%. The IC50 in the data set with 31 biomolecular targets (setting [2]) amounted to 19.3 µM. The compound also returned an Activity range with 31 biomolecular targets (setting [3]) of 11 to 24 µM.

Regarding `C[CH2][Hg][S]c1ccccc1C(=O)[O-].[Na+]` [Thimerosal], the “Overall target hit rate” value in data set [1] was 17%. Further, the “CHI score (Cell Health Index)” value in the data set with HL60 cells is on record as 0.936. In the data set with 31 biomolecular targets, the Activity range is 0.32 to 30 µM and the IC50 amounted to 15 µM.

Take Polysorbate 80: the “Overall target hit rate” value in data set [1] amounted to 13%. Further, the “CHI score (Cell Health Index)” value in the data set with HL60 cells stood at 0.422. Besides, the Activity range with 31 biomolecular targets (setting [3]) lay within 1.0 to 21 µM. Further, the IC50 with 31 biomolecular targets was determined as 10.7 µM.
